Assay results reported in PubChem BioAssay AID256 (DTP/NCI, 2004).
Inconclusive results and toxic doses are left out. Rule for the calls: active = survival T/C of 150% or more; inactive = T/C below 125% in these data.

Test system: CD2F1 mice, L1210 leukemia ip, survival T/C
Experiment: NCI In Vivo Anticancer Drug Screen. Data for tumor model L1210 Leukemia (intraperitoneal) in CD2F1 (CDF1) mice
Details: higher = longer survival
In short: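 Read-out first: treated-group measurement over vehicle-control measurement, expressed as a ratio. Animals bore a transplanted tumor line and were dosed with compound or vehicle.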

[1] = endpoint: mean survival time, dose: 12.5 mg/kg/injection, schedule: Q01DX009 (ip), vehicle: other
[2] = endpoint: mean survival time, dose: 25.0 mg/kg/injection, schedule: Q01DX009 (ip), vehicle: other
[3] = endpoint: mean survival time, dose: 50.0 mg/kg/injection, schedule: Q01DX009 (ip), vehicle: other
[4] = endpoint: mean survival time, dose: 100.0 mg/kg/injection, schedule: Q01DX009 (ip), vehicle: other
[5] = endpoint: mean survival time, dose: 100.0 mg/kg/injection, schedule: Q01DX009 (ip), vehicle: saline with Tween-80
[6] = endpoint: mean survival time, dose: 200.0 mg/kg/injection, schedule: Q01DX009 (ip), vehicle: other
[7] = endpoint: mean survival time, dose: 25.0 mg/kg/injection, schedule: Q01DX001 (ip), vehicle: saline with Tween-80
[8] = endpoint: mean survival time, dose: 50.0 mg/kg/injection, schedule: Q01DX001 (ip), vehicle: saline with Tween-80
[9] = endpoint: mean survival time, dose: 100.0 mg/kg/injection, schedule: Q01DX001 (ip), vehicle: saline with Tween-80
[10] = endpoint: mean survival time, dose: 100.0 mg/kg/injection, schedule: Q04DX003 (ip), vehicle: saline with Tween-80
[11] = endpoint: mean survival time, dose: 200.0 mg/kg/injection, schedule: Q04DX003 (ip), vehicle: saline with Tween-80
[12] = endpoint: mean survival time, dose: 200.0 mg/kg/injection, schedule: Q01DX001 (ip), vehicle: saline with Tween-80
[13] = endpoint: mean survival time, dose: 400.0 mg/kg/injection, schedule: Q01DX001 (ip), vehicle: saline with Tween-80
[14] = endpoint: mean survival time, dose: 100.0 mg/kg/injection, schedule: Q04DX003 (ip), vehicle: saline
[15] = endpoint: mean survival time, dose: 200.0 mg/kg/injection, schedule: Q04DX003 (ip), vehicle: saline

Measured: T/C

CN(C)N=Nc1c(F)c(F)c(F)c(F)c1F
inactive: [1] 98 % of control | [2] 102 % of control | endpoint: mean survival time, dose: 25.0 mg/kg/injection, schedule: Q01DX009 (ip), vehicle: saline with Tween-80 106 % of control | [3] 104 % of control | endpoint: mean survival time, dose: 50.0 mg/kg/injection, schedule: Q01DX009 (ip), vehicle: saline with Tween-80 104 % of control | [4] 104 % of control | [5] 107 % of control | [6] 115 % of control

COc1ccc(OC)c(/C=C/c2ccnc3ccccc23)c1
inactive: endpoint: median survival time, dose: 50.0 mg/kg/injection, schedule: Q01DX009 (ip), vehicle: saline with Tween-80 102 % of control | endpoint: median survival time, dose: 100.0 mg/kg/injection, schedule: Q01DX009 (ip), vehicle: saline with Tween-80 101 % of control | endpoint: median survival time, dose: 200.0 mg/kg/injection, schedule: Q01DX009 (ip), vehicle: saline with Tween-80 108 % of control | endpoint: median survival time, dose: 400.0 mg/kg/injection, schedule: Q01DX009 (ip), vehicle: saline with Tween-80 113 % of control

COC(=O)C(Cc1[nH]c(N=Nc2ccc(Br)cc2)nc1N=Nc1ccc(Br)cc1)NC(C)=O (stereo unspecified)
inactive: endpoint: mean survival time, dose: 100.0 mg/kg/injection, schedule: Q04DX002 (ip), vehicle: saline with Tween-80 93 % of control | endpoint: mean survival time, dose: 200.0 mg/kg/injection, schedule: Q04DX002 (ip), vehicle: saline with Tween-80 96 % of control | endpoint: mean survival time, dose: 400.0 mg/kg/injection, schedule: Q04DX002 (ip), vehicle: saline with Tween-80 96 % of control

Cc1c2c(cc3c1CCC1(C)C3CCC1C(C)CCC(C)C(C)C)CC(O)CC2 (stereo unspecified)
inactive: endpoint: mean survival time, dose: 75.0 mg/kg/injection, schedule: Q01DX001 (ip), vehicle: saline with Tween-80 92 % of control | endpoint: mean survival time, dose: 150.0 mg/kg/injection, schedule: Q01DX001 (ip), vehicle: saline with Tween-80 90 % of control | endpoint: mean survival time, dose: 300.0 mg/kg/injection, schedule: Q01DX001 (ip), vehicle: saline with Tween-80 90 % of control

COc1ccc(-n2cnc3c(=O)[nH]c(N)nc32)cc1
inactive: [7] 95 % of control | [8] 92 % of control | [9] 95 % of control

CN(C)CCCNc1c2ccccc2nc2cccc([N+](=O)[O-])c12
inactive: endpoint: mean survival time, dose: 0.2 mg/kg/injection, schedule: Q04DX002 (ip), vehicle: saline + alcohol 103 % of control | endpoint: mean survival time, dose: 0.4 mg/kg/injection, schedule: Q04DX002 (ip), vehicle: saline + alcohol 103 % of control | endpoint: mean survival time, dose: 0.8 mg/kg/injection, schedule: Q04DX002 (ip), vehicle: saline + alcohol 100 % of control

Cc1cc(CCl)c(C)cc1CCl
inactive: endpoint: mean survival time, dose: 6.25 mg/kg/injection, schedule: Q04DX003 (ip), vehicle: saline with Tween-80 91 % of control | endpoint: mean survival time, dose: 12.5 mg/kg/injection, schedule: Q04DX003 (ip), vehicle: saline with Tween-80 91 % of control | endpoint: mean survival time, dose: 25.0 mg/kg/injection, schedule: Q04DX003 (ip), vehicle: saline with Tween-80 87 % of control | [10] 98 % of control

c1ccc(CN=NNc2ccccc2)cc1
inactive: endpoint: mean survival time, dose: 75.0 mg/kg/injection, schedule: Q01DX001 (ip), vehicle: saline 94 % of control | endpoint: mean survival time, dose: 150.0 mg/kg/injection, schedule: Q01DX001 (ip), vehicle: saline 100 % of control | endpoint: mean survival time, dose: 300.0 mg/kg/injection, schedule: Q01DX001 (ip), vehicle: saline 103 % of control

O=C(O)CCCc1cc(O)c2c(c1O)C(=O)c1ccccc1C2=O
inactive: endpoint: mean survival time, dose: 50.0 mg/kg/injection, schedule: Q04DX003 (ip), vehicle: saline with Tween-80 120 % of control | [10] 104 % of control | [11] 101 % of control

CCOC(=O)C1C(=O)N(c2ccccc2)C(=O)N1c1ccccc1 (stereo unspecified)
inactive: [1] 89 % of control | [2] 89 % of control | [3] 103 % of control | [4] 93 % of control | [6] 98 % of control

CC1(C)CCCC2(C)C(OCCO)=CC(=O)C=C12 (stereo unspecified)
inactive: endpoint: mean survival time, dose: 100.0 mg/kg/injection, schedule: Q04DX003 (ip), vehicle: saline sonified 96 % of control | endpoint: mean survival time, dose: 200.0 mg/kg/injection, schedule: Q04DX003 (ip), vehicle: saline sonified 98 % of control | endpoint: mean survival time, dose: 400.0 mg/kg/injection, schedule: Q04DX003 (ip), vehicle: saline sonified 96 % of control

CC(=O)OCCCOC(C)=O
inactive: [9] 93 % of control | [12] 112 % of control | [13] 101 % of control

NC(=S)N1N=C(c2cccc([N+](=O)[O-])c2)CCC1=O
inactive: [10] 111 % of control | [11] 111 % of control | endpoint: mean survival time, dose: 400.0 mg/kg/injection, schedule: Q04DX003 (ip), vehicle: saline with Tween-80 107 % of control

CCCCNC(=O)Nc1cccc2c(O)cccc12
inactive: endpoint: mean survival time, dose: 50.0 mg/kg/injection, schedule: Q01DX009 (ip), vehicle: DMSO 97 % of control

O=[N+]([O-])c1cc(Br)ccc1P(=O)(O)O
inactive: endpoint: mean survival time, dose: 50.0 mg/kg/injection, schedule: Q04DX003 (ip), vehicle: saline 95 % of control | [14] 96 % of control | [15] 93 % of control

N#CNC(N)=O
inactive: endpoint: mean survival time, dose: 100.0 mg/kg/injection, schedule: Q01DX009 (ip), vehicle: saline sonified 102 % of control | endpoint: mean survival time, dose: 200.0 mg/kg/injection, schedule: Q01DX009 (ip), vehicle: saline sonified 96 % of control | endpoint: mean survival time, dose: 400.0 mg/kg/injection, schedule: Q01DX009 (ip), vehicle: saline sonified 100 % of control

Nc1ccc(-c2nc(-c3ccccc3)c(-c3ccccc3)[nH]2)cc1
inactive: endpoint: mean survival time, dose: 12.5 mg/kg/injection, schedule: Q01DX001 (ip), vehicle: saline with Tween-80 94 % of control | [7] 102 % of control | [8] 102 % of control | [13] 87 % of control

O=C(Nc1cccc([N+](=O)[O-])c1)c1ccc(Cl)cc1Cl
inactive: [5] 90 % of control | endpoint: mean survival time, dose: 200.0 mg/kg/injection, schedule: Q01DX009 (ip), vehicle: saline with Tween-80 92 % of control | endpoint: mean survival time, dose: 400.0 mg/kg/injection, schedule: Q01DX009 (ip), vehicle: saline with Tween-80 90 % of control

O=C1C=C(S(=O)(=O)O)c2ccccc2C1=O
inactive: [14] 105 % of control | [15] 103 % of control | endpoint: mean survival time, dose: 400.0 mg/kg/injection, schedule: Q04DX003 (ip), vehicle: saline 108 % of control

COC1OC2COc3ccccc3OC2C2N=C(N)SC12 (stereo unspecified)
inactive: [9] 100 % of control | [12] 97 % of control

NC(N)=NCCNC(=O)C1CCC(N)C1 (stereo unspecified)
inactive: endpoint: mean survival time, dose: 0.63 mg/kg/injection, schedule: Q01DX009 (ip), vehicle: saline 96 % of control | endpoint: mean survival time, dose: 1.25 mg/kg/injection, schedule: Q01DX009 (ip), vehicle: saline 96 % of control

COc1ccc(Cc2nnc(Cc3ccc(OC)c(OC)c3)nn2)cc1OC
inactive: [10] 101 % of control | [11] 93 % of control
